“Also recorded” adds a separate entry of the source. Counter-ions that a name gives are not always drawn.
Columns and labels:
[1] = test system: diet-induced obesity in C57BL/6 mice; experiment: Mouse diet-induced obesity: type II diabetes, hyperlipidemia and metabolic syndrome; assay type: in vivo; conditions: 10 mg/kg/day, 6 weeks, vs vehicle; for blood glucose: two-tailed T test
Procedure: To evaluate treatment with DHCQ and HCQ on a mouse model of diet-induced type II diabetes, hyperlipidemia and metabolic syndrome, C57BL/6 mice (8 per group) were fed a high-fat “western-style” diet (60% caloric content from fat; Taconic). In an analogous fashion to that in Example 6, two weeks following initiation of the high-fat diet groups of mice were initiated on treatment with vehicle control, HCQ (10 mg/kg/day) or the HCQ metabolites DHCQ (10 mg/kg/day), DCQ (10 mg/kg/day), or BDCQ (10 mg/kg/day). After 6 weeks of treatment, blood was collected for analysis of glucose, triglyceride, and cholesterol levels.

ARPE-19 cells = test system: ARPE-19 cells
Procedure: The major serious risk to long term administration of hydroxychloroquine is retinal accumulation and subsequent ocular toxicity (Terahi et al, 2008. Semin Opthal. (3):201-208. PMID). The ocular deposition of HCQ, DHCQ, and BDCQ was evaluated by direct retinal cellular toxicity by incubating equivalent concentrations of these molecules with the retinal pigmented epithelial cell line ARPE-19. ARPE-19 is a human retinal pigment epithelial cell line with differentiated properties (Dunn et al., Exp Eye Res. 1996 62(2):155-69). ARPE-19 cells were grown to 90% confluence, and then exposed to 10 µg/ml of HCQ, DHCQ, BDCQ, or vehicle control for 24 hours, following which microscopic analysis and photomicroscopy was performed at 40× power.
As described above, ARPE-19 cells were grown to 90% confluence then exposed to 10 μg/ml HCQ, DHCQ, BDCQ, or vehicle control for 24 hours followed by quantitation of cell death by lactate dehydrogenase (LDH) release assay (Abcam).

[2] = test system: collagen-induced arthritis (CIA) in DBA/1 mice; experiment: Collagen-induced arthritis (CIA) mouse model for RA, treatment from first immunization; assay type: in vivo; conditions: 50 mg/kg/day oral gavage, 100 mg/kg/day loading day 14-21; vs vehicle, Mann Whitney U test P<0.05
retinal toxicity = conditions: cited from earlier work
[3] = test system: DMM-induced OA in C57BL6 (B6) mice; experiment: Destabilization of the medial meniscus (DMM) mouse model of osteoarthritis; assay type: in vivo; conditions: aminoquinolines 100 mg/kg/day, atorvastatin 40 mg/kg/day, oral gavage from 1 week after DMM, 3 months; vs vehicle, two-tailed T test
Procedure: One week following surgical induction, treatment was initiated with vehicle control, hydroxychloroquine (HCQ), or desethylhydroxychloroquine (DHCQ) dosed at 100 mg/kg/day by oral gavage (once per day). After 3 months, mice were sacrificed, joints harvested, joint sections cut, and tissue sections stained with safranin-O. An examiner blinded to treatment used microscopy to score the severity of OA. The “Cartilage Degeneration Score” (also known as the “OA score”, “Severity Score” and “Histology Score”) was determined by a blinded examiner, and the two-tailed T test used to determine if there were statistical differences in the Cartilage Degeneration Scores between groups.
The histologic sections generated at the termination of the mouse OA experiment presented above and in FIG. 5 were subject to blinded scoring for the “Osteophyte Score” (measure of the amount of osteophyte or ectopic bone formation) and “Synovitis Score” (measure of the amount of synovial and joint inflammation). The scores between groups were compared by two-tailed T test.
Experiments were performed under protocols approved by the Stanford University Committee of Animal Research and in accordance with NIH guidelines. Murine OA was generated by surgically by destabilization of the DMM (Glasson, S., S., et al., Osteoarthritis Cartilage, 15: 1061-1069 (2007)).
Mice were euthanized 3 months after surgery. Their stifle joints were decalcified in EDTA solution, fixed in 4% paraformaldehyde, and embedded in paraffin. Serial 4 micron sections were cut and stained with toluidine blue. Scoring of arthritis in these histology sections was done according to a modified version of previously described composite scoring systems (Kamekura, S., et al. Osteoarthritis Cartilage 13: 632-641 (2005); Bendele, A. M., J Musculoskelet Neuronal Interact., 1: 363-376 (2001)). The “OA Score” was calculated as follows: cartilage degeneration (0-4) was multiplied by the width (1=1/3, 2=2/3, and 3=3/3 of surface area) of each third of the femoral-medial and tibial-medial condyles, and the scores for the 6 regions were summed. To evaluate osteophyte (ectopic bone) formation, we scored toluidine-blue-stained sections according to a previously described scoring system (Kamekura, S., et al. Osteoarthritis development in novel experimental mouse models induced by knee joint instability. Osteoarthritis Cartilage 13, 632-641 (2005)): 0, none; 1, formation of cartilage-like tissues; 2, increase of cartilaginous matrix; 3, endochondral ossification. To evaluate synovitis, we scored H&E-stained sections according to a previously described scoring system (Blom, A. B., et al. Synovial lining macrophages mediate osteophyte formation during experimental osteoarthritis. Osteoarthritis Cartilage 12, 627-635 (2004)): 0, no changes compared to normal joints; 1, thickening of the synovial lining and some influx of inflammatory cells; 2, thickening of the synovial lining and intermediate influx of inflammatory cells; and 3, profound thickening of the synovial lining (more than four cell layers) and maximal observed influx of inflammatory cells. Scores for osteophyte formation and synovitis were recorded for the femoral-medial and the tibial-medial condyles on the operated side of the joint, and the scores for the two regions were summed and statistical comparisons performed using a two-tailed T test.
Treatment was started 1 week after surgical induction of destabilization of the medial meniscus (DMM), a time point at which mice were at increased risk for the development of OA.

| SMILES | total cholesterol [1] | triglycerides [1] | blood glucose [1] | arthritis score (development of disease and disease activity) [2] | further results |
| --- | --- | --- | --- | --- | --- |
| CC(CCCN)Nc1ccnc2cc(Cl)ccc12 (centres unmarked) [BDCQ, bisdesethylchloroquine] | did not result in statistical reductions | did not result in statistical reductions | did not result in statistical reductions in blood glucose | not associated with statistical protection or reduction in disease severity | ARPE-19 cellular toxicity by microscopy (ARPE-19 cells): increased cytotoxicity and death |
| CCNCCCC(C)Nc1ccnc2cc(Cl)ccc12 (centres unmarked) [DCQ, desethylchloroquine] | did not result in statistical reductions | did not result in statistical reductions | did not result in statistical reductions in blood glucose | not associated with statistical protection or reduction in disease severity |  |
| CCN(CCO)CCCC(C)Nc1ccnc2cc(Cl)ccc12 (centres unmarked) [HCQ sulfate, hydroxychloroquine sulfate] |  |  |  |  | incidence of retinal toxicity after 5 years (retinal toxicity; treated humans, conventional doses): 0.5-1%; incidence of retinal toxicity after 10-15 years (retinal toxicity; treated humans): approximately 2%; physician discontinuation for earlier eye problems over 5 years (retinal toxicity; treated patients): ~7% |
| CC(C)c1c(C(=O)Nc2ccccc2)c(-c2ccccc2)c(-c2ccc(F)cc2)n1CC[C@@H](O)C[C@@H](O)CC(=O)O [atorvastatin, reference compound] |  |  |  |  | Cartilage Degeneration Score (OA score) [3]: only resulted in trends towards improvement; also recorded: did not result in a statistically significant reduction in the severity of OA |
| CCN(CC)CCCC(C)Nc1ccnc2cc(Cl)ccc12 (centres unmarked) [chloroquine] |  |  |  |  | rates of retinal toxicity relative to HCQ (retinal toxicity; in vivo): Considerably higher rates of toxicity |

Reference: patent publication US9931335B2, “Desethylhydroxychloroquine for the treatment of diseases associated with inflammation” (The Board of Trustees of the Leland Stanford Junior …, priority 2013, dated 2018)
